Experimental data from US6492339B1, “Compositions comprising D-chiro inositol and sulfonylureas and methods of treatment thereof” (Insmed, Incorporated, priority 2001, dated 2002).
“Also recorded” adds a separate entry of the source.

Legend:
type 2 diabetic patients = assay: Subgroup analysis of lipid lowering drug/D-chiro-inositol effects on LDL cholesterol; type: in vivo, human; conditions: type 2 diabetic patients on sulfonylurea, with or without lipid lowering medications
Description: Due to the observation of lipid lowering effects seen in the DCI group, the clinical trial described in EXAMPLE 1 was further analyzed for synergistic interactions between D-chiro-inositol and lipid lowering medications. Certain patients within the trial were treated according to standard of care with HMC-CoA inhibitors (LIPITOR®, LESCOL®, ZOCOR®, MEVACOR®, PRAVACHOL®), gemfibrozil, or a combination of HMC-CoA and gemfibrozil. No inclusion or exclusion criteria were established for the efficacy of the lipid lowering drug efficacy in the patient population. As stated supra, these patients were being sub optimally treated with a sulfonylurea prior to beginning the clinical trial.

[1] = system: obese patients with type 2 diabetes mellitus; assay: Meal tolerance test (MTT) at baseline and final visit of the clinical trial; type: in vivo, human
Description: Changes in area-under-the-curve (AUC) and 120-minute insulin and glucose levels during the meal tolerance test (MTT).
(§1) The study involved 5 scheduled visits. The first visit was the screening visit, followed by a baseline visit up to 2 weeks later. Patients were randomized at the baseline visit, half to 1200 mg/day D-chiro-inositol and half to placebo. and subsequently began 13 weeks of treatment with blinded study medication. There were 3 visits for safety and efficacy assessments, at 4, 8, and 13 weeks after beginning treatment. The 13week visit was the final visit. Patients arrived at the investigational site in a fasted state for all visits. Assessments were to be done at the same time of day at each visit by the same responsible personnel. Medication was taken once a day at the same time of morning, except on visit days, on which the dose was delayed until just after fasting blood samples had been collected.
(§2) Biomarkers: A meal tolerance test (MTT) was performed at baseline (Visit 2) and the final visit (Visit 5). In addition, blood was drawn at every visit for assessment of fasting glucose and insulin, HbA1c, C-peptide, fructosamine, FFA, triglycerides, total cholesterol, HDL, VLDL, LDL, and Apo-B levels.
AUC (and 120-minute) insulin and glucose levels during the MTT;.
FIGS. 1A, 1B and 2 illustrate the observation that D-chiro-inositol (DCI) prolongs pancreatic production of insulin in patients receiving sulfonylurea compounds. […] At baseline, a time when the subjects had been poorly managed on SU compounds alone, both the DCI group and the SU group responded similarly in their ability to produce insulin in response to the meal challenge. […] Without wishing to be bound by theory, the inventors contemplate that this progression is mediated by pancreatic failure and thus reduced insulin secretion. Therefore the amelioration of this effect by administration of DCI benefits the subject by the aforementioned medical improvements, but also will prevent the progression of diabetes by preventing pancreatic failure and/or decreased insulin production.

[2] = system: obese patients with type 2 diabetes mellitus; assay: Randomized, placebo-controlled, double-blind clinical trial of D-chiro-inositol in combination with a sulfonylurea (fasting biomarkers, HbA1c, lipids); type: in vivo, human; conditions: for difference to placebo in change of mean HbA1c level (%): baseline to endpoint
Description: The objective of this study was to assess the efficacy and safety of D-chiro-inositol when administered as a single oral dose of 1200 mg/day compared to placebo, each in combination with sulfonylureas, for 3 months. Patients were required to have been on sulfonylureas for 3 months prior to study entry without reaching their target dose or with a suboptimal response.
This multicenter, double-blind, parallel-group, placebo-controlled, randomized, fixed-dose clinical study was designed to evaluate 1200 mg/day D-chiro-inositol versus placebo in 270 obese patients with type 2 diabetes mellitus who had been receiving sulfonylureas for at least 3 months without reaching their target or with suboptimal response.
as §1
Patients receiving D-chiro-inositol received four 300 mg capsules once daily for a total daily dose of 1200 mg; placebo patients took 4 placebo capsules once daily. Doses were taken orally, generally in the mornings. Patients were instructed to take their dose in the morning at the same time each day, except on visit days. On visit days, dosing was to be done at the clinic. No instructions were given regarding when to take medication in relation to meals on non-visit days.
as §2
Primary Efficacy Variable(s) and Analyses. The primary analysis was based on the change from baseline to endpoint in HbA1c level using the modified ITT and evaluable study populations. The analysis was done using an analysis of covariance (ANCOVA) model with treatment group and the baseline HbA1c value as predictors.
Secondary Efficacy Variable(s) and Analyses. Since all secondary efficacy parameters were continuous, they were analyzed in the same manner as described above for the primary efficacy parameter, with treatment group and baseline values for the relevant parameter used as predictors.

[3] = system: streptozotocin-treated rats, obese Zucker rats, or normal rats given a glucose load; conditions: obese Zucker or glucose-loaded normal rats; cited from earlier work
[4] = system: obese insulin-resistant rhesus monkeys; conditions: oral or intravenous route; cited from earlier work
diabetic population = conditions: in combination with sulfonylurea or insulin; cited from earlier work
[5] = evaluable patients with fasting plasma glucose ≦180 mg/dL, 1200 mg/day oral with sulfonylureas
[6] = evaluable population, 1200 mg/day oral with sulfonylureas, 13 weeks
[7] = patients with fasting plasma glucose ≦180 mg/dL, 1200 mg/day oral with sulfonylureas

Structure (SMILES)	effect on LDL cholesterol (FIG. 3) (type 2 diabetic patients)	Change in insulin AUC from baseline to final (FIG. 2) ([1]; DCI+SU, scatter diagram of individual subjects, median, listed as DCI)	insulin response after a meal tolerance test, baseline versus final (FIGS. 1A, 1B) ([1]; DCI+SU, subjects with fasting blood glucose ≤180 mg/dl, three month timepoint, listed as DCI)	AUC insulin, mean change [1, 5] [μU/mL · hr]	120-min. insulin, mean change at endpoint [1, 6] [μU/mL]	AUC insulin, mean change at endpoint [1, 6] [μU/mL · hr]	Mean change (in %) in HbA1c levels from baseline to endpoint ([2]; all subjects using LOCF at endpoint, 1200 mg/day oral with sulfonylureas, 13 weeks) [%]	decrease in mean HbA1c level (%) from baseline to endpoint ([2]; evaluable patients with FPG≦180 mg/dL, value printed as size of the decrease) [%]	Apo-B, mean change [2, 5] [mg/dL]	difference to placebo in change of mean HbA1c level (%) ([2]; evaluable population)	FFA, mean change at endpoint [2, 6] [mEq/L]	decrease in mean HbA1c levels (%) from baseline to endpoint ([2]; evaluable population, value printed as size of the decrease) [%]	difference to placebo in change of mean HbA1c level (%) ([2]; patients with FPG≦180 mg/dL)	Mean change (in %) in HbA1c levels to endpoint ([2]; patients with fasting plasma glucose ≦180 mg/dL, LOCF at endpoint, 1200 mg/day oral with sulfonylureas) [%]	Mean change (in %) in HbA1c levels to Week 4 [2, 7] [%]	Mean change (in %) in HbA1c levels to Week 8 [2, 7] [%]	glycemic control [3]	disappearance rate of plasma glucose and insulin [4]	rate of mild to moderate hypoglycemia (diabetic population)
OC1C(O)C(O)C(O)C(O)C1O [D-chiro-inositol]	significantly reduced the increase of LDL cholesterol	no significant negative scatter; also recorded: slightly increased the insulin AUC	maintained this response after the 13 week course of treatment; also recorded: maintains a constant insulin response over the testing period	1070.8	3.50	484.4	−0.16	0.53	-4.00	0.36	−0.07	0.16	0.80	−0.53	−0.47	−0.57	significantly improved glycemic control	significantly increased the disappearance rate of both plasma glucose and insulin	–
CCc1ccc(CCOc2ccc(CC3SC(=O)NC3=O)cc2)nc1 (stereo not shown) [pioglitazone]	–	–	–	–	–	–	–	–	–	–	–	–	–	–	–	–	–	–	1-2%
